Results taken from patent US7576094B2, “Spiro derivatives as lipoxygenase inhibitors” (Eli Lilly and Company, priority 2004, dated 2009).

Target: T1, human recombinant 5-Lipoxygenase (Homo sapiens, UniProt P09917)
T1 sequence (P09917 1-674): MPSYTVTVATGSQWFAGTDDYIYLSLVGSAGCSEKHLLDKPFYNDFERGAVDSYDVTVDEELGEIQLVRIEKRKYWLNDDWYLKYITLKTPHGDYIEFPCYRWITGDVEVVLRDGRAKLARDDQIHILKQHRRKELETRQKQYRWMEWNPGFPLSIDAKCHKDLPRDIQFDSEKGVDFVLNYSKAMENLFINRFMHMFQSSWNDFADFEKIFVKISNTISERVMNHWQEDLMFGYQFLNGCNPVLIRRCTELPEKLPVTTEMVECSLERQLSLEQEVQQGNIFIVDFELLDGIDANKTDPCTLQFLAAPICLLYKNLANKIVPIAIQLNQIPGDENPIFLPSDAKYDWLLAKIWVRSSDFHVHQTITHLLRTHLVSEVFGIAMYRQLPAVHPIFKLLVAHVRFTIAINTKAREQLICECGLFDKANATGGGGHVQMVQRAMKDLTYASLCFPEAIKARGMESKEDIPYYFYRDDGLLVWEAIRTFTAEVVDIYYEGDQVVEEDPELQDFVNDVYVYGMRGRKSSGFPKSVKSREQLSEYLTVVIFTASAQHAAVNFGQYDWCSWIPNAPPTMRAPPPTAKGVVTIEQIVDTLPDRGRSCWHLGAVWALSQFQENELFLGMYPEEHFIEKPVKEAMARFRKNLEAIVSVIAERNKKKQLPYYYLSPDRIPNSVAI
Test: 5-Lipoxygenase Enzyme Assay
Type: biochemical
Settings: 70 μM arachidonic acid, 10 minute incubation at room temperature, FOX reagent, absorbance at 620 nm; read-out: inhibition of 5-Lipoxygenase with an IC50
Source text: This procedure was used for measuring the enzymatic activity of human recombinant 5-Lipoxygenase using a colorimetric method based on the ferric oxidation of xylenol orange.
• 96 well flat bottom microfilter plates (VWR, Catalog # 62402-933 9295) • Lipoxygenase screening assay buffer (Cayman, Catalog # 760710) • Human recombinant 5-Lipoxygenase (Cayman, Catalog # 60402) • Arachidonic Acid (Sigma, Catalog # A3555) • Xylenol orange tetra sodium salt (Aldrich, Catalog # 227854) • Iron (II) sulfate heptahydrate (Sigma, Catalog # F7002) • Sulfuric acid (95-98%) [18 M] • Methanol Procedure
Human recombinant 5-Lipoxygenase (Cayman Cat # 60402) was used in this assay. The test compound and/or vehicle was added to 0.5 μL 5-Lipoxygenase in 50 mM Tris-HCl buffer, pH 7.4. The reaction was initiated by addition of 70 μM arachidonic acid in Tris-HCl buffer, pH 7.4, and terminated after a 10 minute incubation at room temperature by addition of FOX reagent (25 mM sulfuric acid, 100 μM xylenol orange, 100 μM iron (II) sulfate, methanol:water 9:1). The yellow color of acidified xylenol orange was converted to a blue color by the lipid hydroperoxide-mediated oxidation of Fe^2+ ions and the interaction of the resulting Fe^3+ ions with the dye. The complex was allowed to form during a 1 hour incubation at room temperature with shaking. Absorbance of the Fe^3+ complex was then measured at […] using a spectrophotometer.
Negative controls contained enzyme during the incubation step but substrate was not added until after the FOX reagent. Compounds were screened at 5 concentrations in triplicate starting at 10 μM

IC50 [nM] | Compound
< 300 | CO/N=C1\CC2(CCC2)Oc2cc(C)c(O)c(C)c21 [6-hydroxy-5,7-dimethylspiro[chromene-2,1′-cyclobutan]-4(3H)-one O-methyloxime]
< 300 | Cc1c(C)c2c(c(C)c1O)C(CN)=CC1(CCC1)O2 [4-(aminomethyl)-5,7,8-trimethylspiro[chromene-2,1′-cyclobutan]-6-ol]
< 300 | CCCC(=O)NC1CC2(CCC2)Oc2c(C)c(C)c(O)c(C)c21 (stereo not shown) [N-(6-hydroxy-5,7,8-trimethyl-3,4-dihydrospiro[chromene-2,1′-cyclobutan]-4-yl)butanamide]
< 300 | Cc1c(C)c2c(c(C)c1OC(=O)CN(C)C)CCC1(CCC1)O2 [5,7,8-trimethyl-3,4-dihydrospiro[chromene-2,1′-cyclobutan]-6-yl (dimethylamino)acetate]
< 300 | CCO/N=C1\CC2(CCC2)Oc2cc(C)c(O)c(C)c21 [(4E)-6-hydroxy-5,7-dimethylspiro[chromene-2,1′-cyclobutan]-4(3H)-one O-ethyloxime]
< 300 | CCO/N=C1/CC2(CCC2)Oc2cc(C)c(O)c(C)c21 [(4Z)-6-hydroxy-5,7-dimethylspiro[chromene-2,1′-cyclobutan]-4(3H)-one O-ethyloxime]

Continued, compound first:

Compound | IC50 [nM]
Cc1cc2c(c(C)c1O)CCC1(CCC1)N2Cc1ccc(Cl)cc1 [1′-(4-chlorobenzyl)-5′,7′-dimethyl-3′,4′-dihydro-1′H-spiro[cyclobutane-1,2′-quinolin]-6′-ol] | < 300
Cc1c(C)c2c(c(C)c1OC(=O)CN(C)C)CCC1(CCC1)S2 [5′,7′,8′-trimethyl-3′,4′-dihydrospiro[cyclobutane-1,2′-thiochromen]-6′-yl (dimethylamino)acetate] | < 300
Cc1c(O)cc2c(c1C)N(c1ccc(S(C)(=O)=O)cc1)CC1(CCC1)C2 [7′,8′-dimethyl-1′-(4-(methylsulfonyl)phenyl)-2′,4′-dihydro-1′H-spiro[cyclobutane-1,3′-quinolin]-6′-ol] | < 300
CCONC1CC2(CCC2)Oc2cc(CC)c(O)c(CC)c21 (stereo not shown) [4-(ethoxyamino)-5,7-diethyl-3,4-dihydrospiro[chromene-2,1′-cyclobutan]-6-ol] | < 300
Cc1c(O)cc2c(c1C)N(c1ccc(N3CCNCC3)nc1)CC1(CCC1)C2 [7′,8′-dimethyl-1′-(6-(piperazin-1-yl)pyridin-3-yl)-2′,4′-dihydro-1′H-spiro[cyclobutane-1,3′-quinolin]-6′-ol] | < 300
CONCc1c2c(c(C(C)C)c(O)c1C(C)C)CCC1(CCC1)O2 [5,7-diisopropyl-8-[(methoxyamino)methyl] 3,4-dihydrospiro[chromene-2,1′-cyclobutan]-6-ol] | < 300
COC(=O)c1ccc(N2CC3(CCC3)Cc3cc(O)c(C)c(C)c32)cc1 [methyl 4-(6′-hydroxy-7′,8′-dimethyl-2′,4′-dihydro-1′H-spiro[cyclobutane-1,3′-quinoline]-1′-yl)benzoate] | < 300
Cc1c2c(c(C)c(Cl)c1OC(=O)c1cccnc1)OC1(CCC1)CC2 [7-chloro-5,8-dimethyl-3,4-dihydrospiro[chromene-2,1′-cyclobutan]-6-yl nicotinate] | < 300
CCc1c(O)c(C)c(C)c2c1C(NOC)CC1(CCC1)O2 (stereo not shown) [5-ethyl-4-(methoxyamino)-7,8-dimethyl-3,4-dihydrospiro[chromene-2,1′-cyclobutan]-6-ol] | < 300
Cc1cc2c(c(C)c1O)C(OC(C)C)CC1(CCC1)O2 (stereo not shown) [4-isopropoxy-5,7-dimethyl-3,4-dihydrospiro[chromene-2,1′-cyclobutan]-6-ol] | < 300
Cc1c(C)c2c(c(C)c1O)C(O)C1(CCC1)CN2c1ccc(Cl)cc1 (stereo not shown) [1′-(4-chlorophenyl)-5′,7′,8′-trimethyl-2′,4′-dihydro-1′H-spiro[cyclobutane-1,3′-quinoline]-4′,6′-diol] | < 300
Cc1c(O)cc(C(C)C)c2c1CCC1(CCC1)O2 [8-isopropyl-5-methyl-3,4-dihydrospiro[chromene-2,1′-cyclobutan]-6-ol] | < 300
CCc1cc2c(c(CC)c1O)C(O)C1(CCC1)CO2 (stereo not shown) [5,7-diethylspiro[chroman-3,1′-cyclobutane]-4,6-diol] | < 300
